Results on 8 compounds are retold here after ChEMBL document CHEMBL1153169, “Structure-activity relationships of the ultrapotent vanilloid resiniferatoxin (RTX): The side chain benzylic methylene” (Bioorg Med Chem Lett, 2010).

T1 sequence (Q8NER1 whole entry): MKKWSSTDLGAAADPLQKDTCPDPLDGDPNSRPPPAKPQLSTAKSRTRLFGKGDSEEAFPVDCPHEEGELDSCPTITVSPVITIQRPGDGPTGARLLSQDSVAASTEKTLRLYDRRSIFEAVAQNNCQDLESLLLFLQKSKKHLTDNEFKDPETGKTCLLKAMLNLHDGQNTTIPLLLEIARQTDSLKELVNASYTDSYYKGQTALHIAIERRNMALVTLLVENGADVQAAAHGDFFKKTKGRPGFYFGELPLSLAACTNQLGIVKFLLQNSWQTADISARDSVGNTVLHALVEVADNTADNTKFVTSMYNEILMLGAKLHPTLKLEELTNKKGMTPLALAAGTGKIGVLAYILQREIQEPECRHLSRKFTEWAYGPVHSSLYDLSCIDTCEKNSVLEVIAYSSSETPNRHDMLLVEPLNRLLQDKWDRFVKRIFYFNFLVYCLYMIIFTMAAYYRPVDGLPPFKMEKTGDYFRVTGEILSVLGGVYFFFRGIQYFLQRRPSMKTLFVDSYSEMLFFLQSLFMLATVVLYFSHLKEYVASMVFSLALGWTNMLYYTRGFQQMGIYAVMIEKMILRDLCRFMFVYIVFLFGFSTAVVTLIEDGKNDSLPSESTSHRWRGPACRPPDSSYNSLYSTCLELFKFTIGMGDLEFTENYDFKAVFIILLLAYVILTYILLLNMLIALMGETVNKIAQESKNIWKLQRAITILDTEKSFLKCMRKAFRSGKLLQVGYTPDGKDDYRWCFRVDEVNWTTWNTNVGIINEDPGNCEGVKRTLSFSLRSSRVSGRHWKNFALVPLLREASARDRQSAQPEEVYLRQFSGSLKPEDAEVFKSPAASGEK

The first assay concerns the target T1, Transient receptor potential cation channel subfamily V member 1 (Homo sapiens, UniProt Q8NER1). In words: Agonist activity at human TRPV1 expressed in HEK293 cells assessed as increase in intracellular calcium level. The class given is functional, cell-based. On the technique in general: Calcium assays in cells follow changes in intracellular calcium, usually with a dye or a luminescent sensor.
For the compound `C=C(C)[C@]12C[C@@H](C)[C@@]34O[C@](Cc5ccccc5)(O[C@@H]1[C@@H]3C=C(COC(=O)C(OC)c1ccc(O)c(OC)c1)C[C@]1(O)C(=O)C(C)=C[C@@H]41)O2` (some centres undefined), the EC50 – broadly, the concentration that produces a half-maximal response – turned out to be 17.4 nM. Same read-out and setting: under `C=C(C)[C@]12C[C@@H](C)[C@@]34O[C@](Cc5ccccc5)(O[C@@H]1[C@@H]3C=C(COC(=O)C(OC(C)=O)c1ccc(O)c(OC)c1)C[C@]1(O)C(=O)C(C)=C[C@@H]41)O2` (some centres undefined) stands 0.65 nM; under `C=C(C)[C@]12C[C@@H](C)[C@@]34O[C@](Cc5ccccc5)(O[C@@H]1[C@@H]3C=C(COC(=O)C(O)c1ccc(O)c(OC)c1)C[C@]1(O)C(=O)C(C)=C[C@@H]41)O2` (some centres undefined), 19 nM. Take `C=C(C)[C@]12C[C@@H](C)[C@@]34O[C@](Cc5ccccc5)(O[C@@H]1[C@@H]3C=C(COC(=O)C(C)c1ccc(O)c(OC)c1)C[C@]1(O)C(=O)C(C)=C[C@@H]41)O2` (some centres undefined): the EC50 is 0.98 nM.

With `C=C(C)[C@]12C[C@@H](C)[C@@]34O[C@](Cc5ccccc5)(O[C@@H]1[C@@H]3C=C(COC(=O)Oc1cc(I)c(O)c(OC)c1)C[C@]1(O)C(=O)C(C)=C[C@@H]41)O2`, the EC50 is 0.0047 nM.

Take `C=C(C)[C@]12C[C@@H](C)[C@@]34O[C@](Cc5ccccc5)(O[C@@H]1[C@@H]3C=C(COC(=O)Oc1ccc(O)c(OC)c1)C[C@]1(O)C(=O)C(C)=C[C@@H]41)O2`: the EC50 was found to be 13.7 nM. Still for that read-out and setting: under `C=C(C(=O)OCC1=C[C@H]2[C@H]3O[C@@]4(Cc5ccccc5)O[C@@]2([C@H](C)C[C@]3(C(=C)C)O4)[C@@H]2C=C(C)C(=O)[C@@]2(O)C1)c1ccc(O)c(OC)c1` stands 0.15 nM.

For another assay, the target named is T1, Transient receptor potential cation channel subfamily V member 1. In words: Selectivity ratio of EC50 for drug to capsaicin for human TRPV1 expressed in HEK293 cells assessed as increase in intracellular calcium level. It is filed as cell-based.
`C=C(C)[C@]12C[C@@H](C)[C@@]34O[C@](Cc5ccccc5)(O[C@@H]1[C@@H]3C=C(COC(=O)Oc1ccc(O)c(OC)c1)C[C@]1(O)C(=O)C(C)=C[C@@H]41)O2`: the Ratio EC50 is 3.

The target is the same in another assay. The experiment in a line: Antagonist activity at human TRPV1 expressed in HEK293 cells assessed as inhibition of intracellular calcium level. The class given is functional, cell-based.
Regarding `C=C(C)[C@]12C[C@@H](C)[C@@]34O[C@](Cc5ccccc5)(O[C@@H]1[C@@H]3C=C(COC(=O)Cc1cc(I)c(O)c(OC)c1)C[C@]1(O)C(=O)C(C)=C[C@@H]41)O2` [IODORESINIFERATOXIN], the IC50 (usually the concentration at which inhibition is half-maximal) was 4000 nM.
